Source: patent publication US20030207812A1, “Cd45 inhibitors” (priority 2002, published 2003)
Where a SMILES comes first, the peptide text is derived from it. The star is where a group is joined. Phenanthrenequinone2carbonyl = O=C1C(=O)c2cc(C(=O)*)ccc2-c2ccccc21; 3Phenanthroyl(9,10-dioxo) = O=C1C(=O)c2ccc(C(=O)*)cc2-c2ccccc21

Tests used:
[1] = target: T1, CD45 (Homo sapiens, UniProt P08575); assay: Phosphatase assay using pNPP as substrate; format: biochemical
T1 construct: incubating the cytosolic portion of CD45 with the compounds and p-nitrophenyl phosphate (pNPP); purchased BIOMOL (Plymouth Meeting, Pa.)
T1 sequence (P08575 599-1306 limits assumed): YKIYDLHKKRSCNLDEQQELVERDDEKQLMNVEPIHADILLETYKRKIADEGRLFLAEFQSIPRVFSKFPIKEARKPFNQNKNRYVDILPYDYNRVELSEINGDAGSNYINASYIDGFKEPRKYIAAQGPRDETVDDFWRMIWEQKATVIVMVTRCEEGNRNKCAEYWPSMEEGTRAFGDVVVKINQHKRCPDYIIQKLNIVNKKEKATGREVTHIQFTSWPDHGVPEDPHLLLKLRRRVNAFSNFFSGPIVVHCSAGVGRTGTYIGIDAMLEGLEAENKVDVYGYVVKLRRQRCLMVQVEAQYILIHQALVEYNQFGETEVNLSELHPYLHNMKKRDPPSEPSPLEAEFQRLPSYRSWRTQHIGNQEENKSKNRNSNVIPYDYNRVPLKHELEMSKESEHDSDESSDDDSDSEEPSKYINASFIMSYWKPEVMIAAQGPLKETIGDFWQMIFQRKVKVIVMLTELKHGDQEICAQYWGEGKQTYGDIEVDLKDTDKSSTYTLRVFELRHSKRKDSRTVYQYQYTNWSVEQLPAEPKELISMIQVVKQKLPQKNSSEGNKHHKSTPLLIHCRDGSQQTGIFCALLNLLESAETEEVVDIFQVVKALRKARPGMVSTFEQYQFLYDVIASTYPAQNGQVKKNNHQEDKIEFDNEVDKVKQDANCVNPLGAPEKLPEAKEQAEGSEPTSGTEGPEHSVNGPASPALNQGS
Description: Phosphatase assay using pNPP as substrate:
CD45 enzyme was obtained from BIOMOL (Plymouth Meeting, Pa.). Phosphatase activity was assayed in a buffer containing final concentrations of 25 mM imidazole at pH 7.0, 50 mM NaCl, 2.5 mM ethylenediaminetetraacetic acid (“EDTA”), 5 mM dithiothreitol (“DTT”) and 10 μg/mL bovine serum albumin (“BSA”) using pNPP as a substrate.

[2] = target: T1, CD45; assay: Phosphatase assay using lck 10-mer as substrate; format: biochemical
Procedure, shortened: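 Enzyme incubated with lck phosphopeptide TEGQpYQPQP for 1.5 h at room temperature in 25 mM HEPES pH 7.2, 5 mM DTT, 10 μg/mL BSA, 5% DMSO final. Compounds tested from 30 to 0.01 μM. Released phosphate detected with malachite-type Green Reagent, absorbance at 620 nm after 30 min.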

[3] = in vitro; conditions: human
Description: Calcein-AM (Molecular Probes. Eugene, Oreg.) uptake, as a quantitative measure of cell viability, was used to evaluate the toxic effect of compounds on T cells.
The T-cell lymphoblasts were purified by separation over Lymphoprep, plated at 2×10^5/well in a round bottom 96-well plate containing RPMI with compound and incubated overnight at 37° C. in an incubator containing 5% CO2. The dilution scheme and culture media were the same as those used in the T-cell proliferation assay. After the incubation period, cells were washed with Dulbecco's phosphate-buffered saline (D-PBS) and incubated with 1 μM Calcein-AM for 30-45 mim in D-PBS as described in the technical sheet provided with The LIVE/DEAD Viability/Cytotoxicity Kit from Molecular Probes.

Row | Compound | IC50 ([1]; pH 7, read-out: pNPP IC50) [µM] | IC50 [2] [µM] | CC50 [3] [µM] | IC50 [1] [µM] | IC50 ([2]; CD45 phosphatase, lck carboxy-terminal peptide TEGQpYQPQP substrate, pH 7.2, read-out: Ick IC50) [µM]
1 | N=C(N)NCCC[C@H](NC(=O)[C@@H]1CCCN1C(=O)[C@H](CCCNC(=N)N)NC(=O)CNC(=O)c1ccc2c(c1)C(=O)C(=O)c1ccccc1-2)C(=O)NCC(=O)O [Example 55] (Phenanthrenequinone2carbonyl-GRPRG-OH) | 1.4 | 4.7 | > 30 |  | 
2 | NC(=O)CC[C@H](NC(=O)c1ccc2c(c1)-c1ccccc1C(=O)C2=O)C(=O)N[C@@H](CCC(N)=O)C(=O)N1CCC[C@H]1C(=O)N[C@@H](CCC(N)=O)C(=O)N1CCC[C@H]1C(=O)O [Example 26] ({3Phenanthroyl(9,10-dioxo)}-QQPQP-OH) | 0.7 | 2.3 | > 30 |  | 
3 | O=C(O)CC[C@H](NC(=O)[C@@H]1CCCN1C(=O)CNC(=O)CNC(=O)c1ccc2c(c1)C(=O)C(=O)c1ccccc1-2)C(=O)NCC(=O)O [Example 40] (Phenanthrenequinone2carbonyl-GGPEG-OH) | 0.6 | 3.9 | > 30 |  | 
4 | N=C(N)NCCC[C@H](NC(=O)c1ccc2c(c1)C(=O)C(=O)c1ccccc1-2)C(=O)NCC(=O)N1CCC[C@H]1C(=O)N[C@@H](CCC(=O)O)C(=O)NCC(=O)O [Example 42] (Phenanthrenequinone2carbonyl-RGPEG-OH) | 0.9 | 3.5 | > 30 |  | 
5 | N=C(N)NCCC[C@H](NC(=O)[C@@H]1CCCN1C(=O)[C@H](CCC(=O)O)NC(=O)[C@H](CCC(=O)O)NC(=O)c1ccc2c(c1)C(=O)C(=O)c1ccccc1-2)C(=O)NCC(=O)O [Example 53] (Phenanthrenequinone2carbonyl-EEPRG-OH) | 1 | 3.7 | > 30 |  | 
6 | NC(=O)CC[C@H](NC(=O)CNC(=O)c1ccc2c(c1)-c1ccccc1C(=O)C2=O)C(=O)NCC(=O)N[C@@H](CCC(N)=O)C(=O)N1CCC[C@H]1C(=O)O [Example 29] ({3Phenanthroyl(9,10-dioxo)}-GQGQP-OH) | 1.1 | 2.5 | > 30 |  | 
7 | NC(=O)CC[C@H](NC(=O)CNC(=O)c1ccc2c(c1)-c1ccccc1C(=O)C2=O)C(=O)N1CCC[C@H]1C(=O)N[C@@H](CCC(=O)O)C(=O)NCC(=O)O [Example 39] ({3Phenanthroyl(9,10-dioxo)}-GQPEG-OH) |  |  | > 30 | 0.7 | 2.3
8 | O=C(O)CC[C@H](NC(=O)c1ccc2c(c1)C(=O)C(=O)c1ccccc1-2)C(=O)NCC(=O)N1CCC[C@H]1C(=O)N[C@@H](CCC(=O)O)C(=O)NCC(=O)O [Example 41] (Phenanthrenequinone2carbonyl-EGPEG-OH) | 1.4 | 3.5 | > 30 |  | 
9 | NC(=O)CC[C@H](NC(=O)c1ccc2c(c1)-c1ccccc1C(=O)C2=O)C(=O)N[C@@H](CCC(N)=O)C(=O)NCC(=O)N[C@@H](CCC(N)=O)C(=O)N1CCC[C@H]1C(=O)O [Example 30] ({3Phenanthroyl(9,10-dioxo)}-QQGQP-OH) | 0.9 | 1.7 | > 30 |  | 
10 | NC(=O)CC[C@H](NC(=O)CNC(=O)c1ccc2c(c1)-c1ccccc1C(=O)C2=O)C(=O)NCC(=O)N[C@@H](CCC(=O)O)C(=O)N1CCC[C@H]1C(=O)O [Example 35] ({3Phenanthroyl(9,10-dioxo)}-GQGEP-OH) | 0.9 | 1.4 | > 30 |  | 
11 | NC(=O)CC[C@H](NC(=O)[C@@H]1CCCN1C(=O)[C@H](CCC(N)=O)NC(=O)CNC(=O)c1ccc2c(c1)-c1ccccc1C(=O)C2=O)C(=O)N1CCC[C@H]1C(=O)O [Example 25] ({3Phenanthroyl(9,10-dioxo)}-GQPQP-OH) | 1.2 | 2.5 | > 30 |  | 
12 | N=C(N)NCCC[C@H](NC(=O)[C@@H]1CCCN1C(=O)CNC(=O)CNC(=O)c1ccc2c(c1)C(=O)C(=O)c1ccccc1-2)C(=O)NCC(=O)O [Example 49] (Phenanthrenequinone2carbonyl-GGPRG-OH) | 0.9 | 6.1 | > 30 |  | 
13 | NC(=O)CC[C@H](NC(=O)c1ccc2c(c1)-c1ccccc1C(=O)C2=O)C(=O)N[C@@H](CCC(=O)O)C(=O)NCC(=O)N[C@@H](CCC(N)=O)C(=O)N1CCC[C@H]1C(=O)O [Example 33] ({3Phenanthroyl(9,10-dioxo)}-QEGQP-OH) | 1.1 | 2.5 | > 30 |  | 
14 | N=C(N)NCCC[C@H](NC(=O)c1ccc2c(c1)C(=O)C(=O)c1ccccc1-2)C(=O)N[C@@H](CCC(=O)O)C(=O)N1CCC[C@H]1C(=O)N[C@@H](CCC(=O)O)C(=O)NCC(=O)O [Example 45] (Phenanthrenequinone2carbonyl-REPEG-OH) | 1.4 | 3.9 | > 30 |  | 
15 | N=C(N)NCCC[C@H](NC(=O)[C@@H]1CCCN1C(=O)CNC(=O)[C@H](CCC(=O)O)NC(=O)c1ccc2c(c1)C(=O)C(=O)c1ccccc1-2)C(=O)NCC(=O)O [Example 50] (Phenanthrenequinone2carbonyl-EGPRG-OH) | 0.7 | 2.8 | > 30 |  | 
16 | N=C(N)NCCC[C@H](NC(=O)[C@H](CCC(=O)O)NC(=O)c1ccc2c(c1)C(=O)C(=O)c1ccccc1-2)C(=O)N1CCC[C@H]1C(=O)N[C@@H](CCC(=O)O)C(=O)NCC(=O)O [Example 47] (Phenanthrenequinone2carbonyl-ERPEG-OH) | 0.7 | 4.2 | > 30 |  | 
17 | NC(=O)CC[C@H](NC(=O)c1ccc2c(c1)-c1ccccc1C(=O)C2=O)C(=O)N[C@@H](CCC(=O)O)C(=O)N1CCC[C@H]1C(=O)N[C@@H](CCC(N)=O)C(=O)N1CCC[C@H]1C(=O)O [Example 28] ({3Phenanthroyl(9,10-dioxo)}-QEPQP-OH) | 1.1 | 2.2 | > 30 |  | 
18 | O=C(O)CC[C@H](NC(=O)c1ccc2c(c1)C(=O)C(=O)c1ccccc1-2)C(=O)N[C@@H](CCC(=O)O)C(=O)N1CCC[C@H]1C(=O)N[C@@H](CCC(=O)O)C(=O)NCC(=O)O [Example 44] (Phenanthrenequinone2carbonyl-EEPEG-OH) | 1.1 | 3.8 | > 30 |  | 
19 | NC(=O)CC[C@H](NC(=O)[C@H](CCC(=O)O)NC(=O)c1ccc2c(c1)-c1ccccc1C(=O)C2=O)C(=O)NCC(=O)N[C@@H](CCC(N)=O)C(=O)N1CCC[C@H]1C(=O)O [Example 31] ({3Phenanthroyl(9,10-dioxo)}-EQGQP-OH) | 0.6 | 2.5 | > 30 |  | 
20 | NC(=O)CC[C@H](NC(=O)[C@@H]1CCCN1C(=O)[C@H](CCC(N)=O)NC(=O)[C@H](CCC(=O)O)NC(=O)c1ccc2c(c1)-c1ccccc1C(=O)C2=O)C(=O)N1CCC[C@H]1C(=O)O [Example 24] ({3Phenanthroyl(9,10-dioxo)}-EQPQP-OH) | 0.6 | 2.4 | > 30 |  | 
21 | NC(=O)CC[C@H](NC(=O)CNC(=O)[C@H](CCC(=O)O)NC(=O)CNC(=O)c1ccc2c(c1)-c1ccccc1C(=O)C2=O)C(=O)N1CCC[C@H]1C(=O)O [Example 32] ({3Phenanthroyl(9,10-dioxo)}-GEGQP-OH) | 0.7 | 2.3 | > 30 |  | 
22 | N=C(N)NCCC[C@H](NC(=O)c1ccc2c(c1)C(=O)C(=O)c1ccccc1-2)C(=O)N[C@@H](CCCNC(=N)N)C(=O)N1CCC[C@H]1C(=O)N[C@@H](CCCNC(=N)N)C(=O)NCC(=O)O [Example 57] (Phenanthrenequinone2carbonyl-RRPRG-OH) | 1.3 | 3.2 | > 30 |  | 
